Measurements taken from ChEMBL document CHEMBL5579819, “Dual-target inhibitors of colchicine binding site for cancer treatment” (Eur J Med Chem, 2024).

Legend:
[1] = AUC (0 to t) in BALB/c mouse at 50 mg/kg, po measured for 24 hrs by LC-MS/MS analysis; format: ADME, organism-based; conditions: in vivo
[2] = Cmax in BALB/c mouse at 50 mg/kg, po measured for 24 hrs by LC-MS/MS analysis; format: ADME, organism-based; conditions: in vivo
[3] = Metabolic stability in BALB/c mouse liver microsome assessed as half life incubated for 1 hrs by LC-MS/MS analysis; format: ADME; conditions: liver microsomes
[4] = molecular target: Triosephosphate isomerase (Homo sapiens, UniProt P60174); test: Inhibition of TPI (unknown origin)
[5] = tested on: MCF7; test: Cytotoxicity against human MCF7 cells assessed as reduction in cell growth incubated for 72 hrs by MTT assay; format: functional, cell-based; conditions: MCF7, 72 h
[6] = tested on: Ishikawa; test: Antiproliferative activity against human Ishikawa cells assessed as reduction in cell growth incuabted for 48 hrs by MTT assay; format: functional, cell-based
[7] = tested on: A549; test: Cytotoxicity against human A549 cells assessed as reduction in cell growth incubated for 24 hrs by MTT assay; format: functional, cell-based; conditions: A549, 24 h
[8] = Selectivity index, ratio of CC50 for cytotoxicity against African green monkey Vero cells to IC50 for cytotoxicity against human HepG2 cells; format: toxicity, cell-based; conditions: Vero cells (CC50) and HepG2 cells (IC50)
[9] = tested on: HepG2; test: Cytotoxicity against human HepG2 cells assessed as reduction in cell growth incubated for 24 hrs by MTT assay; format: functional, cell-based; conditions: HepG2, 24 h
[10] = tested on: MCF7; test: Cytotoxicity against human MCF7 cells assessed as cell growth inhibition incubated for 24 hrs by MTT assay; format: functional, cell-based; conditions: MCF7, 24 h
[11] = tested on: HeLa; test: Cytotoxicity against human HeLa cells assessed as reduction in cell viability measured for 48 hrs by MTT assay; format: functional, cell-based
[12] = tested on: SiHa; test: Cytotoxicity against human SiHa cells assessed as reduction in cell viability measured for 48 hrs by MTT assay; format: functional, cell-based
[13] = molecular target: Histone deacetylase 2 (Homo sapiens, UniProt Q92769); test: Inhibition of HDAC2 (unknown origin)
[14] = tested on: U-937; test: Cytotoxicity against human U-937 cells; format: functional, cell-based
[15] = tested on: A549; test: Cytotoxicity against human A549 cells; format: functional, cell-based
[16] = molecular target: Tubulin; test: Inhibition of tubulin polymerization (unknown origin) by fluorescence based assay; format: protein-complex assay, Homo sapiens
[17] = tested on: COLO 205; test: Cytotoxicity against human COLO 205 cells assessed as reduction in cell growth incubated for 24 hrs by SRB assay; format: functional, cell-based; conditions: COLO 205, 24 h
[18] = tested on: MCF7; test: Cytotoxicity against human MCF7 cells assessed as reduction in cell viability incubated for 24 hrs by MTT assay; format: functional, cell-based; conditions: MCF7, 24 h
[19] = tested on: HCT-116; test: Cytotoxicity against human HCT-116 cells assessed as reduction in cell viability incubated fro 24 hrs by MTT assay; format: functional, cell-based; conditions: HCT-116, 24 h
[20] = tested on: HepG2; test: Cytotoxicity against human HepG2 cells assessed as reduction in cell viability incubated for 24 hrs by MTT assay; format: functional, cell-based; conditions: HepG2, 24 h
[21] = molecular target: Vascular endothelial growth factor receptor 2 (Homo sapiens, UniProt P35968); test: Inhibition of VEGFR2 (unknown origin)
[22] = tested on: MCF7; test: Cytotoxicity against human MCF7 cells assessed as reduction in cell growth incubated for 24 hrs by MTT assay; conditions: MCF7, 24 h
[23] = molecular target: Platelet-derived growth factor receptor beta (Homo sapiens, UniProt P09619); test: Inhibition of human recombinant PDGFRbeta incubated for 40 mins by Kinase-Glo luminescent kinase assay
[24] = tested on: MCF7; test: Cytotoxicity against human MCF7 cells assessed as reduction in cell viability by MTT assay

Triosephosphate isomerase, sequence (P60174 whole entry): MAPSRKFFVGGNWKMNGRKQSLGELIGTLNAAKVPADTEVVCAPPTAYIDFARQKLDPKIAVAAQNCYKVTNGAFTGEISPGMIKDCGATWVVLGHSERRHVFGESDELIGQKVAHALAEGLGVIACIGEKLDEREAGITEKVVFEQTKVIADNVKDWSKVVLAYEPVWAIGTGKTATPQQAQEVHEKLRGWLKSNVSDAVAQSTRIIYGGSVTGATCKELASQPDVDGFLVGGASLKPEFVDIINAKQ
Histone deacetylase 2, sequence (Q92769 whole entry): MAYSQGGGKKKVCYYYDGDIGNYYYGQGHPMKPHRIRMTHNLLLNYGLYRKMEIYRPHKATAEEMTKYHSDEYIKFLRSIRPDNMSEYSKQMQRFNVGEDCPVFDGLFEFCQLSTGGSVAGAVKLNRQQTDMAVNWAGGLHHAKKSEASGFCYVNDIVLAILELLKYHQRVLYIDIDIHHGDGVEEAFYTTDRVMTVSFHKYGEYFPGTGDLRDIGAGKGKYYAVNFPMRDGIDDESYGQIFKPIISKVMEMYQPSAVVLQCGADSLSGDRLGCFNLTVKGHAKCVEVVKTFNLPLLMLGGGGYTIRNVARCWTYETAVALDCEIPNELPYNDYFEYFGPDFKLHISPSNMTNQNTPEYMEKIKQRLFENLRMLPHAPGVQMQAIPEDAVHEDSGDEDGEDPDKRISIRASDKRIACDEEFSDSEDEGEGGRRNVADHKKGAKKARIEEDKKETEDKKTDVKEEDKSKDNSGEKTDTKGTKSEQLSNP
Platelet-derived growth factor receptor beta, sequence (P09619 whole entry): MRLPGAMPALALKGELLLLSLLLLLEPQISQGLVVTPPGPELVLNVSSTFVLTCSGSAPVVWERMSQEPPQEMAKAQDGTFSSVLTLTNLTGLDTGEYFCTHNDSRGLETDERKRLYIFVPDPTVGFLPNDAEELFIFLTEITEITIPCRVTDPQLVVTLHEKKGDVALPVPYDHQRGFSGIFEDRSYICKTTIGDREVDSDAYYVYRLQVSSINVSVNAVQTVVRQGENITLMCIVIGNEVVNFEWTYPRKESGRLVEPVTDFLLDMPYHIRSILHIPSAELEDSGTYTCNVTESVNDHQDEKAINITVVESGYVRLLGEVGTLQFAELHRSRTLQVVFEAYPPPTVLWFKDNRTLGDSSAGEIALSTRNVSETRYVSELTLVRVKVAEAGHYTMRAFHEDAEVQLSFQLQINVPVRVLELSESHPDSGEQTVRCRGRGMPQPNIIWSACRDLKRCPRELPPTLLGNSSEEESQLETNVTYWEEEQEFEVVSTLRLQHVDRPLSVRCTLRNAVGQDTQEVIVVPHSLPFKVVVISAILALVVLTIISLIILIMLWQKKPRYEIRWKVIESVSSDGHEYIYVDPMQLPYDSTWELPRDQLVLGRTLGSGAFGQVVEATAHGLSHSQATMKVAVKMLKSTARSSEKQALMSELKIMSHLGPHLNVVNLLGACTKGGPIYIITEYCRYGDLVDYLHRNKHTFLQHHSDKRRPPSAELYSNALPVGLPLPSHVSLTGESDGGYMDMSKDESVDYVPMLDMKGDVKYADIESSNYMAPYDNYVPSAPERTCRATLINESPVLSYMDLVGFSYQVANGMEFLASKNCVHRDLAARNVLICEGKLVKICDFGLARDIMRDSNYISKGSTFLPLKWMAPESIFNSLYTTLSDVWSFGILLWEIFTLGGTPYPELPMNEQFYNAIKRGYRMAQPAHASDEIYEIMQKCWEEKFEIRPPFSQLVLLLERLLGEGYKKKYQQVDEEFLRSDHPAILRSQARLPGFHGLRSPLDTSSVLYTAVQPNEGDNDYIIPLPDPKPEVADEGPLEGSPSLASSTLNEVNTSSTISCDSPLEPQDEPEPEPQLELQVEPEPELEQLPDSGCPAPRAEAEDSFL
Vascular endothelial growth factor receptor 2, sequence (P35968 whole entry): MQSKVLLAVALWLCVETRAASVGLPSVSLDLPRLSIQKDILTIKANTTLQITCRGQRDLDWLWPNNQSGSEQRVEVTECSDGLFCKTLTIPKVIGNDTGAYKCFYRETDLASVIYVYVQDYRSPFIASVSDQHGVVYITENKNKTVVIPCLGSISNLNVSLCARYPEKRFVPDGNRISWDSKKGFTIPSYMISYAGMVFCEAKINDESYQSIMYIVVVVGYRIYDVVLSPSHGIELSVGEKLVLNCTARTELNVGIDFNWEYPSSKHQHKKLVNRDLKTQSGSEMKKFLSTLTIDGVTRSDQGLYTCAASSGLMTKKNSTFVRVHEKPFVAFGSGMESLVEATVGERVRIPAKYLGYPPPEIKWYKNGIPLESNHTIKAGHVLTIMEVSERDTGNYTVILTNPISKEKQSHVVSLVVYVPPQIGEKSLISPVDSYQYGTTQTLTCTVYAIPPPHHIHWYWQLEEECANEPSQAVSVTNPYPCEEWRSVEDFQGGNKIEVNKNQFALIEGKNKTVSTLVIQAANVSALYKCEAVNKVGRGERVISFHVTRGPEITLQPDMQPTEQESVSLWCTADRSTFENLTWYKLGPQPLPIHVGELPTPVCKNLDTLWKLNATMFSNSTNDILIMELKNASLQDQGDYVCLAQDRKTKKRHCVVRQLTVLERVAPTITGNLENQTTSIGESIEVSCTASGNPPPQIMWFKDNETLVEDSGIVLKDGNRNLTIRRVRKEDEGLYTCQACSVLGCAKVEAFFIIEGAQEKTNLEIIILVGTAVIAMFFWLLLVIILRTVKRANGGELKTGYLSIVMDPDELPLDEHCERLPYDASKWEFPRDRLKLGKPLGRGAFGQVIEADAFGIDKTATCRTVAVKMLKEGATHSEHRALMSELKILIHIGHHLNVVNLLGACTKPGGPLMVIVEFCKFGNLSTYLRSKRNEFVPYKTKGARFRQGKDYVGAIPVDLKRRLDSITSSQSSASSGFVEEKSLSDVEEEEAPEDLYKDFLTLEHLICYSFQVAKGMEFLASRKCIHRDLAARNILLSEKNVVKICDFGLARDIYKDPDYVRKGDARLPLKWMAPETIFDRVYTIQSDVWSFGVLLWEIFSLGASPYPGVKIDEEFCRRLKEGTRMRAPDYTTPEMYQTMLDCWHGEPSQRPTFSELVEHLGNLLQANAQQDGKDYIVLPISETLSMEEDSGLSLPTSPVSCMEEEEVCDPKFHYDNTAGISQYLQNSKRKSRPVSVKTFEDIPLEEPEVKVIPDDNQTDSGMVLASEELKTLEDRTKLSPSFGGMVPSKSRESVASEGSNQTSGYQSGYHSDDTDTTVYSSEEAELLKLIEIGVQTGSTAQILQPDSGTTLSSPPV

For CCOC(=O)Nc1nc2ccc(-c3cc(Cc4n[nH]c(=O)c5ccccc45)ccc3F)cc2[nH]1, which AUC(0-t) at 24 h [1] is on record?
Its AUC(0-t) at 24 h is 87600 ng·h/mL.

What about the Cmax [2] of the same compound?
The Cmax was 12200 ng/mL.

What about the half-life [3] of the same compound?
The half-life was 257 min.

And the IC50 [4]?
The IC50 was 990 nM.

Which IC50 [5] does the source give for Nc1ccccc1NC(=O)c1ccc(CN2CCC/C(=C\c3cccc(Cl)c3)C2=O)cc1 here?
Its IC50 is 2100 nM.

For O=c1cc(-c2ccc(F)cc2)oc2cc(-c3ccoc3)ccc12, which IC50 [6] is on record?
The IC50 was 1000 nM.

And the IC50 [4]?
Its IC50 is 1400 nM.

Which IC50 [7] does the source give for CN(C)c1ccc(/C=N/c2c(N)n(C)c(=O)[nH]c2=O)cc1 here?
The IC50 was 1530 nM.

And the selectivity ratio [8]?
Its selectivity ratio is 3.74.

And the IC50 [9]?
Its IC50 is 1070 nM.

What about the IC50 [4] of the same compound?
The IC50 was 1900 nM.

What about the IC50 [10] of the same compound?
The IC50 was 3.17 µM.

Which results are given for COc1cc2oc(C(=O)c3cc(OC)c(OC)c(OC)c3)cc2cc1/C=C/C(=O)O?
IC50 [11]: 1060 nM; IC50 [12]: 1100 nM

For COc1cc2c(cc1OCc1ccc(C(=O)Nc3ccccc3N)cc1)CC[C@@H]1[C@@H]2CC[C@]2(C)[C@@H](O)CC[C@@H]12, which IC50 [13] is on record?
Its IC50 is 60 nM.

What about the IC50 [14] of the same compound?
Its IC50 is 371 nM.

And the IC50 [15]?
Its IC50 is 1780 nM.

Which IC50 [16] does the source give for COc1cc(OC)c(/C=C2/C(=O)Nc3cc(Cl)ccc32)c(OC)c1 here?
The IC50 was 1660 nM.

What about the IC50 [17] of the same compound?
The IC50 was 200 nM.

Which IC50 [18] does the source give for CCOCCSc1nc(-c2ccccc2Cl)nn1CCOCC here?
Its IC50 is 5.16 µM.

And the IC50 [19]?
Its IC50 is 3.36 µM.

And the IC50 [20]?
Its IC50 is 1300 nM.

Which results are given for O=C1Nc2ccccc2/C1=C/c1ccc(OCC(=O)c2ccc(Br)cc2)cc1?
IC50 [21]: 5.75 µM; IC50 [22]: 14.8 µM; IC50 [4]: 7990 nM; IC50 [23]: 3.18 µM; IC50 [24]: 14.8 µM
